According to publication PMC11855827, “High-Throughput Screening of Five Compound Libraries for Anthelmintic Activity and Toxicity Leads to the Discovery of Two Flavonoid Compounds” (International Journal of Molecular Sciences, 2025):
“And” between values parts separate entries of the source, which are not always exact repeats. Equal entries are not always repeated.

Tested on: C. elegans
Conditions: Table S2, C. elegans SS assay, 110 μM, averages of 4 data points

Row | Molecule | Percentage of motility inhibition 0 h | Percentage of motility inhibition 24 h
1 | CC[C@]1(O)C[C@H]2CN(CCc3c([nH]c4ccccc34)[C@@](C(=O)OC)(c3cc4c(cc3OC)N(C=O)[C@H]3[C@@](O)(C(=O)OC)[C@H](OC(C)=O)[C@]5(CC)C=CCN6CC[C@]43[C@@H]65)C2)C1.O=S(=O)(O)O [Vincristine (sulfate)] | 0% | 0% and 7%
2 | CCC1=C[C@@H]2CN(C1)Cc1c([nH]c3ccccc13)[C@@](C(=O)OC)(c1cc3c(cc1OC)N(C)[C@H]1[C@@](O)(C(=O)OC)[C@H](OC(C)=O)[C@]4(CC)C=CCN5CC[C@]31[C@@H]54)C2.O=C(O)C(O)C(O)C(=O)O.O=C(O)C(O)C(O)C(=O)O [Vinorelbine (ditartrate)] | 0% | 
3 | C[C@@H]1O[C@@H](c2c(O)c([C@@H]3O[C@H](CO)[C@@H](O)[C@H](O)[C@H]3O)c(O)c3c(=O)cc(-c4ccc(O)cc4)oc23)[C@H](O)[C@H](O)[C@H]1O [Violanthin] | 0% | 19%
4 | O=c1[nH]c2ccccc2c(-c2cccc(O)c2)c1O [Viridicatol] | 0% | 0%
5 | C[C@@H]1O[C@@H](O[C@@H]2[C@@H](O)[C@H](O)[C@@H](CO)O[C@H]2c2c(O)cc(O)c3c(=O)cc(-c4ccc(O)cc4)oc23)[C@H](O)[C@H](O)[C@H]1O [Vitexin‐2"‐O‐rhamnoside] | 2% | 52%
6 | CC1(C)[C@@H](O)CC[C@]2(C)[C@H]3CC=C4[C@@H]5C[C@@]6(C)C[C@H](OC6=O)[C@]5(C)CC[C@@]4(C)[C@]3(C)CC[C@@H]12 [Wilforlide A] | 7% | 3%
7 | COc1c(O[C@@H]2O[C@H](C(=O)O)[C@@H](O)[C@H](O)[C@H]2O)cc(O)c2c(=O)cc(-c3ccccc3)oc12 [Wogonoside] | 6% | 2%
8 | Cc1ccc(NC(=O)C(=O)NC2CC(C)(C)NC(C)(C)C2)cc1 [YYA‐021] | 44% | 39%
9 | O.O=C(O)[C@@H]1[C@H]2C[C@H]3c4[nH]c5ccccc5c4CCN3C[C@@H]2CC[C@@H]1O [Yohimbic acid (hydrate)] | 16% | 0%
10 | COC(=O)[C@@H]1[C@H]2C[C@H]3c4[nH]c5ccccc5c4CCN3C[C@@H]2CC[C@@H]1O.Cl [Yohimbine (Hydrochloride)] | 24% | 0%
11 | C[C@H]1CC[C@@H]2N(C1)C[C@H]1[C@@H]3C[C@H]4[C@@H](CC(=O)[C@H]5C[C@H](O)CC[C@@]54C)[C@@H]3CC[C@H]1[C@]2(C)O [Yubeinine] | 13% | 0%
12 | C[C@@H]1CC[C@@]2(OC1)O[C@H]1C[C@H]3[C@@H]4CC=C5C[C@@H](O[C@@H]6O[C@H](CO)[C@@H](O[C@@H]7O[C@H](CO)[C@@H](O)[C@H](O[C@@H]8O[C@H](CO)[C@@H](O)[C@H](O)[C@H]8O)[C@H]7O)[C@H](O)[C@H]6O[C@@H]6O[C@@H](C)[C@H](O)[C@@H](O)[C@H]6O)CC[C@]5(C)[C@H]4CC[C@]3(C)[C@H]1[C@@H]2C [Zingiberen Newsaponin] | 0% | 60%
13 | C[C@@H]1CC[C@]2(C(=O)O)CC[C@]3(C)C(=CC[C@@H]4[C@@]5(C)CC[C@H](O[C@@H]6OC[C@H](O)[C@H](O)[C@H]6O)C(C)(C)[C@@H]5CC[C@]43C)[C@@H]2[C@]1(C)O [Ziyuglycoside II] | 11% | 14%
14 | C[C@@H]1CC[C@]2(C(=O)O[C@@H]3O[C@H](CO)[C@@H](O)[C@H](O)[C@H]3O)CC[C@]3(C)C(=CC[C@@H]4[C@@]5(C)CC[C@H](O[C@@H]6OC[C@H](O)[C@H](O)[C@H]6O)C(C)(C)[C@@H]5CC[C@]43C)[C@@H]2[C@]1(C)O [Ziyuglycoside I] | 0% | 6%
15 | C=C/C(C)=C/C=C/C(C)=C/C=C1/C(C)=CCCC1(C)C [all-trans-Anhydro Retinol] | 61% | 58%
16 | C/C=C/c1cc(OC)c(OC)cc1OC [alpha-Asarone] | 49% | 29%
17 | CC(C)=CCC[C@](C)(O)[C@@H]1CC=C(C)CC1 [alpha-Bisabolol] | 1% | 6%
18 | CC1(C)CC[C@]2(C)CC[C@]3(C)C(=CC[C@@H]4[C@@]5(C)CC[C@@H](O)[C@](C)(C(=O)O)[C@@H]5CC[C@]43C)[C@@H]2C1 [alpha-Boswellic acid] | 34% | 28%

Row | Molecule | Percentage of motility inhibition 0 h | Percentage of motility inhibition 24 h
19 | COc1cc2oc3cc(O)c(OC)c(CC=C(C)C)c3c(=O)c2c(O)c1CC=C(C)C [beta‐Mangostin] | 30% | 0%
20 | C=C(C)[C@H]1C=C[C@@](C)(O)CC1 [cis-Isolimonenol] | 2% | 30%
21 | CC/C=C\CC1=C(C)CCC1=O [cis‐Jasmone] | 10% | 9%
22 | S=C=Nc1ccc(N=C=S)cc1 [p‐Phenylene diisothiocyanate] | 2% | 9%
23 | CNCC(O)c1ccc(O)cc1 (centres unmarked) [p‐Synephrine] | 13% | 0%
24 | C/C(=C\CNc1ncnc2c1ncn2[C@@H]1O[C@H](CO)[C@@H](O)[C@H]1O)CO [trans‐Zeatinriboside] | 9% | 0%
25 | C/C1=C\CC/C(C)=C/CC(C)(C)/C=C/C1 [α-Humulene] | 11% | 55%
26 | Cc1c(C)c2c(c(C)c1O)CC[C@@](C)(CCC[C@H](C)CCC[C@H](C)CCCC(C)C)O2 [α-Vitamin E] | 53% | 11%
27 | CC1=C(/C=C/C(C)=C/C=C/C(C)=C/C=C/C=C(C)/C=C/C=C(\C)C=O)C(C)(C)CCC1 [β-Apo-8'-carotenal] | 12% | 1%
28 | C=C(CCC=C(C)C)[C@@H]1CC=C(C)CC1 [β-Bisabolene] | 8% | 57%
29 | CC1=C(CO)C(C)(C)CCC1 [β-Cyclogeraniol] | 15% | 48%
30 | C=C[C@]1(C)CC[C@@H](C(=C)C)C[C@H]1C(=C)C [β-Elemene] | 9% and 7% | 
31 | COc1ccc(-c2oc3c4c(cc(O)c3c(=O)c2O)OC(C)(C)CC4)cc1 [β‐Anhydroicaritin] | 5% | 16%
32 | N[C@@H](CCl)C(=O)O [β‐Chloro‐L‐alanine] | 27% | 7%
33 | (+)-Catechin hydrate | 12% and 8% | 
34 | (+)‐Sparteine | 5% | 13%
35 | (+)‐Sparteine (sulfate pentahydrate) | 0% | 0%
36 | (-)-Huperzine A |  | 7% and 15%
